Experimental data: publication PMC4357715, “The beta hairpin structure within ribosomal protein S5 mediates interplay between domains II and IV and regulates HCV IRES function” (Nucleic Acids Research, 2015)

Experiments:
HCV IRES = test: Ribosomal assembly assay on HCV IRES in RRL; assay type: biochemical, Hepatitis C Virus; conditions: wild-type 32P-labelled HCV IRES RNA; 2 mM GMP-PNP or 20 mM cycloheximide
Procedure: ^32P-labelled wild type or mutant HCV IRES RNA (3 × 10^5 c.p.m.) was added to 25 μl of translation reaction containing 17.5 μl of rabbit reticulocyte lysate (RRL). The reactions were incubated at 30°C for 15 min and diluted to 150 μl with ice cold gradient buffer (20 mM Tris–HCl pH 7.5, 100 mM KCl, 3 mM MgCl2, 1 mM Dithiothreitol (DTT)) and overlaid in 5–30% sucrose gradient. The ribosomal complexes were separated by ultracentrifuge for 3 h at 30 000 rpm at 4°C in TH-641 rotor (Thermo Scientific). Fractions (330 μl) were manually collected from the top of the tube and radioactivity was measured in a liquid scintillation counter. To validate the peaks, in vitro translation was performed in presence of 2 mM 5′-guanylyl imidodiphosphate (GMP-PNP) or 20 mM of cycloheximide and peaks were resolved on sucrose gradient.
We confirmed the 48S and 80S peaks in the ribosome assembly profile by using GMPPNP and cycloheximide respectively. As expected GMPPNP and cycloheximide stalled translation at the 48S and 80S stages, respectively (Figure 3A).
Figure 3. Ribosome assembly on wild type and mutant HCV IRES. (A) Ribosome assembly on wild-type ^32P-labelled HCV IRES RNA in the presence of either cycloheximide or GMPPNP. […] Different fractions were collected and the radioactivity associated with each fraction was measured. […]

[1] = tested on: global protein synthesis in Huh7 cells; test: 35S-Methionine metabolic labelling; assay type: cell-based; conditions: cycloheximide 100 μg/ml, positive control
Procedure: Forty-eight hours after transfection, medium was replaced with serum free DMEM lacking methionine and cysteine (Sigma) and incubated for 1 h. Then 100 μci of ^35S in vivo pro-twin label mix (BRIT) was added to each well and cells were labelled for 30 min. Cells treated with 100 μg/ml concentration of cycloheximide were taken as positive control for global translation shut down. After labelling the cells, media was removed and the cells were washed three times with ice-cold phosphate buffered saline (PBS). Cells were harvested and lysed in the 100 μl of RIPA buffer lacking SDS (50 mM Tris–HCl pH 7.4, 150 mM NaCl, 1 mM EDTA, 1% NP-40, 0.25% sodiumdeoxycholate) containing protease inhibitors (complete EDTA-free protease inhibitor, Roche). The protein concentration of the lysate was then estimated by Bradford assay. Twenty-five micrograms of protein from each sample was mixed with 0.1 mg BSA and ice-cold TCA was added to a final concentration of 20%. The samples were incubated for 30 min on ice and loaded on prewet (with 20% TCA) glass microfibre filters (Whatmann). The filters were washed with 1 ml of 20% TCA twice and once with 1 ml of 100% ethanol. The filters were then incubated overnight with 4 ml of scintillation liquid and counts were taken.
Figure 6. Role of RPS5 in HCV translation and replication. […] Huh7 cells were transfected with siNSP RNA or siRPS5 RNA. […]

SMILES | stage at which translation is stalled (HCV IRES) [S] | reduction of protein levels (35S-methionine incorporation) [1] [%]
Nc1nc2c(ncn2[C@@H]2O[C@H](COP(=O)(O)OP(=O)(O)NP(=O)(O)O)[C@@H](O)[C@H]2O)c(=O)[nH]1 [GMPPNP, 5′-guanylyl imidodiphosphate] | 48 | –
C[C@@H]1C[C@@H]([C@H](O)CC2CC(=O)NC(=O)C2)C(=O)[C@@H](C)C1 [cycloheximide] | 80 | ~75
